For this experiment, the system named is 349418-098-R-PDC complex spheroid viability. The experiment is described as follows: Anticancer human tumor 349418-098-R-PDC patient-derived lung adenocarcinoma cell line growth inhibition. As to conditions: for viability, T/C: stronger effect = lower value. The method in brief: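 Complex spheroids of tumor cells with HUVEC and human MSCs, exposed to iadademstat combined with other agents. Each agent tested in half-log steps from near clinical Cmax (else 10 microM top), DMSO ≤0.25%.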

[1] abbreviates: curve of first compound, second compound 0.1 µM.
[2] abbreviates: curve of first compound, second compound 0.316 µM.
The mark [3] stands for this setting: curve of first compound, second compound 1 µM.
The mark [4] stands for this setting: curve of first compound, second compound 3.16 µM.
[5] abbreviates: curve of first compound, second compound 10 µM.
Where [6] appears, read: second compound 0.1 µM, first compound 0.000316 µM.
Setting [7] is: second compound 0.1 µM, first compound 0.001 µM.
[8] abbreviates: second compound 0.1 µM, first compound 0.00316 µM.
Setting [9] is: second compound 0.1 µM, first compound 0.01 µM.
Where [10] appears, read: second compound 0.1 µM, first compound 0.0316 µM.
[11] abbreviates: second compound 0.1 µM, first compound 0.1 µM.
[12] abbreviates: second compound 0.316 µM, first compound 0.000316 µM.
Setting [13] is: second compound 0.316 µM, first compound 0.001 µM.
Setting [14] is: second compound 0.316 µM, first compound 0.00316 µM.
The mark [15] stands for this setting: second compound 0.316 µM, first compound 0.01 µM.
[16] abbreviates: second compound 0.316 µM, first compound 0.0316 µM.
Setting [17] is: second compound 0.316 µM, first compound 0.1 µM.
The mark [18] stands for this setting: second compound 1 µM, first compound 0.000316 µM.
Where [19] appears, read: second compound 1 µM, first compound 0.001 µM.
Where [20] appears, read: second compound 1 µM, first compound 0.00316 µM.
Setting [21] is: second compound 1 µM, first compound 0.01 µM.
The mark [22] stands for this setting: second compound 1 µM, first compound 0.0316 µM.
[23] abbreviates: second compound 1 µM, first compound 0.1 µM.
[24] abbreviates: second compound 3.16 µM, first compound 0.000316 µM.
The mark [25] stands for this setting: second compound 3.16 µM, first compound 0.001 µM.
[26] abbreviates: second compound 3.16 µM, first compound 0.00316 µM.
Where [27] appears, read: second compound 3.16 µM, first compound 0.01 µM.
Where [28] appears, read: second compound 3.16 µM, first compound 0.0316 µM.
Where [29] appears, read: second compound 3.16 µM, first compound 0.1 µM.
Where [30] appears, read: second compound 10 µM, first compound 0.000316 µM.
Setting [31] is: second compound 10 µM, first compound 0.001 µM.
The mark [32] stands for this setting: second compound 10 µM, first compound 0.00316 µM.
The mark [33] stands for this setting: second compound 10 µM, first compound 0.01 µM.
Setting [34] is: second compound 10 µM, first compound 0.0316 µM.
Setting [35] is: second compound 10 µM, first compound 0.1 µM.

Several values for one entry are separate records, joined by “and”; a condition that tells them apart may be missing. Identical values can stand only once.

Here are results for five compounds from PubChem BioAssay AID1918936 (Molecular Pharmacology Branch, DTP, NCI, 2023).
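Note: spheroids exposed to agents for seven days before readout.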
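Throughout, for viability, T/C: 100% = DMSO vehicle control wells.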

With `CC(C)CC(NC(=O)CNC(=O)c1cc(Cl)ccc1Cl)B1OC(=O)CC(CC(=O)O)(C(=O)O)O1` (centres undefined) + NC1CCC(NC2CC2c2ccccc2)CC1, the IC50 (usually the concentration that inhibits the measured activity by half) by setting is: under setting [1], 0.62 nM; under setting [2], 0.661 nM; under setting [3], 0.681 nM; under setting [4], 0.596 nM; under setting [5], 0.606 nM. Further, the viability, T/C (in general, the result in the treated group divided by that in the control group, in per cent) under setting [6] is 89.2%; the viability, T/C under setting [7] was 22%; the viability, T/C under setting [8] is 4.81%; the viability, T/C under setting [9] is 1.88%; the viability, T/C under setting [10] is 1.17%; the viability, T/C under setting [11] is 1.44%. For the same compound, the viability, T/C is, setting by setting: under setting [12], 97.2%; under setting [13], 23.5%; under setting [14], 4.46%; under setting [15], 1.83%; under setting [16], 1.73%; under setting [17], 1.09%. Further, the viability, T/C is 96.5% under setting [18]; 26.8% under setting [19]; 4.37% under setting [20]; 1.55% under setting [21]; 1.3% under setting [22]; 0.81% under setting [23]. Besides, the viability, T/C runs as follows: under setting [24], 82.2%; under setting [25], 23.4%; under setting [26], 4.76%; under setting [27], 1.66%; under setting [28], 1.29%; under setting [29], 0.98%. Besides, the viability, T/C is, setting by setting: under setting [30], 90.5%; under setting [31], 18.7%; under setting [32], 4.32%; under setting [33], 1.66%; under setting [34], 1.03%; under setting [35], 0.65%.

Consider `O=C(c1cc(Cc2n[nH]c(=O)c3ccccc23)ccc1F)N1CCN(C(=O)C2CC2)CC1`, for which the viability, T/C reads like this: (compound 0.0316 µM) 94.6% and 101%; (compound 0.1 µM) 97.8% and 94.5%; (compound 0.316 µM) 78.8% and 90.7%; (compound 1 µM) 65.8% and 85.2%; (compound 3.16 µM) 53.2% and 64%; (compound 10 µM) 38.9% and 42.3%. Besides, the IC50 (curve of compound) is 3510 nM and 6750 nM.

As to `NS(=O)(=O)OCC1CC(n2ccc3c(NC4CCc5ccccc54)ncnc32)CC1O` (centres undefined), the viability, T/C is, setting by setting: (compound 0.00949 µM) 97.7% and 104%; (compound 0.03 µM) 98% and 68.5%; (compound 0.0949 µM) 33.6% and 29.1%; (compound 0.3 µM) 18.3% and 11%; (compound 0.949 µM) 7.34% and 5.1%; (compound 3 µM) 4.71% and 4.35%. In addition, the IC50 (curve of compound) was 70.6 nM and 51.6 nM.

Consider `Cn1ncnc1C1c2n[nH]c(=O)c3cc(F)cc(c23)NC1c1ccc(F)cc1` (centres undefined) + NC1CC1c1ccc(-c2cccc(O)c2)cc1, for which the IC50 is over 100 nM under setting [1]; over 100 nM under setting [2]; over 100 nM under setting [3]; over 100 nM under setting [4]; over 100 nM under setting [5]. Further, the viability, T/C is, setting by setting: under setting [6], 115%; under setting [7], 105%; under setting [8], 112%; under setting [9], 105%; under setting [10], 101%; under setting [11], 102%. For the same compound, the viability, T/C by setting is: under setting [12], 112%; under setting [13], 110%; under setting [14], 111%; under setting [15], 104%; under setting [16], 106%; under setting [17], 101%. In addition, the viability, T/C was 119% under setting [18]; 112% under setting [19]; 106% under setting [20]; 107% under setting [21]; 108% under setting [22]; 101% under setting [23]. For the same compound, the viability, T/C was 114% under setting [24]; 117% under setting [25]; 105% under setting [26]; 115% under setting [27]; 103% under setting [28]; 103% under setting [29]. Moreover, the viability, T/C is 99.1% under setting [30]; 100% under setting [31]; 98.9% under setting [32]; 96.9% under setting [33]; 90.9% under setting [34]; 86.8% under setting [35].

As to `CC(C)CC(NC(=O)C(Cc1ccccc1)NC(=O)c1cnccn1)B(O)O` (centres undefined) + NC1CC1c1ccc(-c2cccc(O)c2)cc1, the IC50 runs as follows: under setting [1], under 0.316 nM; under setting [2], under 0.316 nM; under setting [3], under 0.316 nM; under setting [4], under 0.316 nM; under setting [5], under 0.316 nM. Besides, the viability, T/C under setting [6] is 2.67%; the viability, T/C under setting [7] is 1.51%; the viability, T/C under setting [8] was 1.31%; the viability, T/C under setting [9] was 0.5%; the viability, T/C under setting [10] is 0.51%; the viability, T/C under setting [11] is 0.69%. Also, the viability, T/C runs as follows: under setting [12], 1.86%; under setting [13], 1.09%; under setting [14], 0.81%; under setting [15], 0.41%; under setting [16], 0.45%; under setting [17], 0.34%. The viability, T/C runs as follows: under setting [18], 1.69%; under setting [19], 1.07%; under setting [20], 0.72%; under setting [21], 0.42%; under setting [22], 0.29%; under setting [23], 0.53%. In addition, the viability, T/C was 1.62% under setting [24]; 0.92% under setting [25]; 0.86% under setting [26]; 1.06% under setting [27]; 0.37% under setting [28]; 0.41% under setting [29]. The viability, T/C by setting is: under setting [30], 0.84%; under setting [31], 0.41%; under setting [32], 0.68%; under setting [33], 0.31%; under setting [34], 0.14%; under setting [35], 0.17%.
